Measured values taken from publication PMC10979003, “Development and crystal structures of a potent second-generation dual degrader of BCL-2 and BCL-xL” (Nature Communications, 2024).

How the values were obtained:
[1] = target: T1, BCL-xL D107A (Homo sapiens, UniProt Q07817, D107A); test: AlphaScreen binary binding, BCL-xL D107A; details: mean ± s.d., n=3
T1 construct: BCL-xL (aa 2-212) and BCL-2 (aa 1-207) transformed cells were grown in LB broth; SMT3 (N); made in house; host or cells: E. coli BL21 (DE3) codon plus
Procedure: (§1) To test the binary/ternary binding affinities of compounds to BCL-2/BCL-xL, AlphaScreen displacement binding assay was performed to test the capabilities of testing compounds to displace a Biotin-tagged Bim (Biotin-[…]) or Bad (Biotin-[…]) from BCL-2 or BCL-xL for BCL-2 and BCL-xL binding affinities, respectively. All reagents were diluted in assay buffer of 25 mM HEPES, pH 7.5, 150 mM NaCl, 0.1% BSA, and 0.005% tween 20 prior incubation. To a 96-well PCR plate (VWR, Cat. No. 82006-636) was added 10 μL Biotin-tagged Bim (15 nM for WT or 50 nM for mutants) or Bad (15 nM for WT or 50 nM for mutants), 10 μL series diluted compounds solution (2 or 3 or 4× dilution), and 10 μL self-made 6×His tagged BCL-2 WT or mutants (25 nM WT or 50 nM mutants) or 10 μL self-made BCL-xL WT and mutants (10 nM WT or 50 nM mutants). […] The luminescence signal was detected on a Biotek’s Synergy Neo2 multimode plate reader installed with an AphaScreen filter cube. The Ki values of each compounds were calculated by fitting data into the “Binding-competitive, One site-Fit Ki” function in GraphPad Prism (9.2.0) based on concentrations of Biotin–peptide used and experimentally determined Kd values of each 6×His protein &&&and Biotin–Peptide pair.

[2] = target: T2, BCL-2 E114A (Homo sapiens, UniProt P10415, E114A); test: AlphaScreen binary binding, BCL-2 E114A
T2 construct: BCL-xL (aa 2-212) and BCL-2 (aa 1-207) transformed cells were grown in LB broth; made in house; host or cells: E. coli BL21 (DE3) codon plus
Procedure: as §1

[3] = target: T3, VCB/PROTAC/BCL-2 ternary complex (Homo sapiens, UniProt P10415+P40337); test: AlphaLISA ternary complex assay VCB/PROTAC/BCL-2; type: binding; details: cell-free AlphaLISA
T3 construct: BCL-xL (aa 2-212) and BCL-2 (aa 1-207) transformed cells were grown in LB broth; GST (on the VCB complex); made in house; host or cells: E. coli BL21 (DE3) codon plus (stated for the BCL-2 construct)
Procedure: Assays were performed at room temperature. All reagents were diluted in assay buffer of 25 mM HEPES, pH 7.5, 150 mM NaCl, 0.1% BSA, and 0.005% tween 20. To a 96-well PCR plate (VWR, Cat. No. 82006-636) were added 10 μL self-made 6×His tagged BCL-xL (100 nM) or BCL-2 (150 nM), 10 μL series diluted compounds solution (4× dilution) and 10 μL of self-made GST-VCB (100 nM). After incubating at room temperature for 15 min, 5 µL of alpha glutathione-donor beads (160 μg/mL, PerkinElmer, Cat. No. 6765300) and 5 µL of anti-6×His acceptor beads (160 μg/mL, PerkinElmer, Cat. No. AL128M) to each well and incubated for additional 45 min in the dark before being transferred to two adjacent wells (17 µL each) of 384-well white OptiPlate (PerkinElmer, Cat. No. 6008280). The luminescence signal was detected on a Biotek’s Synergy Neo2 multimode plate reader installed with an AphaScreen filter cube. Intensity values were plotted in Graphpad Prism (9.2.0) with PROTAC concentration values represented on a log10 scale.

[4] = target: T4, BCL-2 E114A (Homo sapiens, UniProt P10415+P40337, E114A); test: Polyubiquitin chain formation assay, BCL-2 E114A; type: biochemical; details: 10 μM WH244, 1 h, Fig. 5d
T4 construct: BCL-xL (aa 2-212) and BCL-2 (aa 1-207) transformed cells were grown in LB broth; VHL (aa 54-213) and ElonginBC were co-transformed (VCB); 6xHis (TEV-cleavable) (N, cleaved yes); made in house; host or cells: E. coli BL21 (DE3) codon plus (BCL-2, VCB); Trichoplusia ni High-Five insect cells (Cullin2-Rbx1)
Procedure: WT BCL-xL/BCL-2 (5 μM) were ubiquitinated in the presence of E1 SpUba1 (0.1 μM), E2, UbcH5c (1 μM) and Cdc34 (1 μM), ubiquitin (75 μM), VHL-Elongin C-Elongin B complex (0.35 μM), neddylated Cullin2-Rbx1 complex (0.35 μM) and 753b or WH244 (10 μM) at 37 °C in a buffer of 50 mM HEPES, pH 7.5, 10 mM MgCl2, 100 mM NaCl, 2 mM ATP, and 0.5 mM DTT. The reaction mixture was incubated for indicated time points (Supplementary Fig. 4a, b, d, e, g, h) and was terminated by the addition of 1× reducing SDS-PAGE loading buffer. The polyUb chain formation was assessed using immunoblotting as described earlier. For polyUb chain formation on mutant proteins used in this study, the above protocol was used with a fixed time-point of 1 h.

T2 sequence (P10415 1-207 E114A): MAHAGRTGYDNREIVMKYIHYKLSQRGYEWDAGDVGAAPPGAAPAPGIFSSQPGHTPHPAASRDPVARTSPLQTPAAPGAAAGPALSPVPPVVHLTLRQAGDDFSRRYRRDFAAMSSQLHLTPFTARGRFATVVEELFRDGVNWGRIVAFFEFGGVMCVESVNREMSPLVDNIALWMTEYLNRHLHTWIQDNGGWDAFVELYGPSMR
T3 sequence (Q15370 whole entry, the tested form may be a part): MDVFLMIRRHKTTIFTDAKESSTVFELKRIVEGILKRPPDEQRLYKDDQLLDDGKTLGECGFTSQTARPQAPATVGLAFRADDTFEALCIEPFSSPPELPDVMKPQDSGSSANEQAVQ
T3 sequence (Q15369 17-112, further chain): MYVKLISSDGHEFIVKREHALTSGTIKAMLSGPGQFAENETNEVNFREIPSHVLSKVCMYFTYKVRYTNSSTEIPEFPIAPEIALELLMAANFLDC
T3 sequence (P40337 54-213): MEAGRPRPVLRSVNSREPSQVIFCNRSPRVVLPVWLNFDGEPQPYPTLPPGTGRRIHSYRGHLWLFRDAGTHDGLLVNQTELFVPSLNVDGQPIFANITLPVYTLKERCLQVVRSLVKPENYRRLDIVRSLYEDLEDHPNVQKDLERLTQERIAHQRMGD
T3 sequence (P10415 1-207): as the sequence (P10415 1-207 E114A) above, with A114E counted along it
T1 sequence (Q07817 2-212 D107A): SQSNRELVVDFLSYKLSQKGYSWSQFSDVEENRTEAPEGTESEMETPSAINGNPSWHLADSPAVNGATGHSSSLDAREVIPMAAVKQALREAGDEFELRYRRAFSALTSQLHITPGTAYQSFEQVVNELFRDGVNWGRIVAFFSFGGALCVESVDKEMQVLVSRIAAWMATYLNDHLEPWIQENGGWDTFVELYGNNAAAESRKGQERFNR

Row | Ki [1] [nM] | Compound | Increase in Ki for the binary interaction, mutant E114A versus WT BCL-2 [2] | Ki ([2]; mean ± s.d., n=3) [nM] | Ternary complex formation with BCL-2 (comparison with 753b) [3] | PolyUb chain formation retained by E114A, share of the WT activity [4]
1 | 30.3 ± 4.5 | Cc1ncsc1-c1ccc(C(C)NC(=O)C2CC(O)CN2C(=O)C(NC(=O)CCCCCCC(=O)N2CCN(CC3(C)CCC(c4ccc(Cl)cc4)=C(CN4CCN(c5ccc(C(=O)NS(=O)(=O)c6ccc(NC(CCN7CCOCC7)CSc7ccccc7)c(S(=O)(=O)C(F)(F)F)c6)cc5)CC4)C3)CC2)C(C)(C)C)cc1 (centres unmarked) [753b] | – | – | – | –
2 | – | Cc1ncsc1-c1ccc([C@H](C)NC(=O)[C@@H]2C[C@@H](O)CN2C(=O)[C@@H](NC(=O)CN2CCN(CC(=O)N3CCN(C[C@]4(C)CCC(c5ccc(Cl)cc5)=C(CN5CCN(c6ccc(C(=O)NS(=O)(=O)c7ccc(N[C@H](CCN8C[C@@H]9C[C@H]8CO9)CSc8ccccc8)c(S(=O)(=O)C(F)(F)F)c7)cc6)CC5)C4)CC3)CC2)C(C)(C)C)cc1 [WH244] | more than two-fold | 7.4 ± 1.5 | tighter complex | 10-12%
